Laboratory results published in patent US6383528B1 (Yuyu International Co., Ltd., priority 1997, dated 2002).

How the values were obtained:
[1] = test system: mouse acute thrombus model; assay: Recovery rate in the mouse acute thrombus model (collagen + epinephrine); format: in vivo; details: for Recovered Mouse, Number of Mouse: recovery within 15 minutes
Procedure: An Increase in Recovery Rate in the Mouse Acute Thrombus Model
One hour after the final administration of the regimen, the mixed solution containing collagen and epinephrine (collagen 1100 μg+epinephrine 110 μg/10 ml of saline solution/kg) was injected into the vein in the tail. The status of paralysis or death from pulmonary infarction, and the recovery therefrom were duly recorded.
As in the experiment above if the mixed solution comprising collagen and epinephrine was infected into the vein a large of amount of thrombus was generated shortly thereafter with the result of an occlusion in the pulmonary artery. Within one minute after the injection, almost every part of the body was in paralysis with the enlargement of a pupil. Dyspnea occurred followed by a seizure. Within 5 minutes, approximately 70˜80% of the mouse were deceased. As to the remainder, almost every mouse were dead within 15 minutes or in a continued paralysis.

[2] = test system: thrombus formation at the cotton thread in the A-V Shunt; assay: Thrombus formation by arterio-venous shunt (A-V Shunt); format: in vivo; details: female rats; for Thrombus Dry Condition Suppression Rate (%) / Thrombus Wet Condition Suppression Rate (%): vs control rats
Procedure: Thrombus Formation by Arterio-Venous Shunt (A-V Shunt hereinafter) and the Effects on the Platelet Aggregation […] Thereafter, Table 7 was tabulated with the measured weights of the thrombus formation at the cotton thread in the A-V Shunt. At this point, the weights of thrombus were measured in terms of the wet weight immediately after the experiment, and dry weight after complete drying.

[3] = test system: platelet aggregation induced by ADP 3×10^−5M in PRP; assay: Ex vivo platelet aggregation in rats with A-V Shunt; details: for Aggregation Rate (%) 2 Minutes / Aggregation Rate (%) 3 Minutes / Aggregation Rate (%) Maximum: control maximum set at 100
Procedure: The Effect on Platelet Aggregation in the A-V Shunt of Rats
After the administration of the same regimens used in Experiment 3 for the duration of 9 days, the weights of thrombus formations at the A-V Shunt were measured as the sample of the blood therefrom was collected for the purposes of studying the effect on the ex vivo platelet aggregation after the AV-Shunt. In particular, to the PRP (supernatant after the centrifuge of the blood sample for 10 minutes at 200×g) prepared from the respective blood sample, ADP 3×10^−5M, which is the platelets aggregation inducer, were added for the purposes of inducing aggregation.
In order to study the ex vivo platelet aggregation effect of the rats' blood without A-V Shunt, the concentration of ADP lower than 1×10^−5M was used. With the maximum platelet aggregation rate of rats in the control group with A-V Shunt set at 100, various aggregation rates were compared.

[4] = test system: female rats; assay: Prolongation of the bleeding time (tail incision); format: in vivo; details: for Bleeding Time: female rats
Procedure: Prolongation of the Bleeding Time
One hour after the final administration of the regimen, 250 mg/kg of ketamine was injected into muscle tissue for anesthesia. 2 mm from the tail end was incised with the razor blade, after which the blood therefrom was blotted with the filter paper at the interval of 5 second to the point of the hemorrhage stoppage.

[5] = test system: leukocytes in rat; assay: Leukocyte number and differential ratios after 16 weeks of administration; format: in vivo; details: rats
Procedure: Bellefonte, Pa.). […] The changes due to the dosage amount and blending ratio were set as follows. […] On the other hand, one tablet of the Ginkgo biloba extract is 40 mg, 80 mg, 120 mg with a daily dosage of 120 mg to 240 mg. […] [table] […] After anesthesia, blood was collected through the abdominal aorta, and the number of white blood cells were counted using the Coulter Counter. Using the cytochemical dyeing method, the ratios of neutrophil, eosinophil, basophil, macrophage and lymphocytes were measured.

[6] = test system: leukocytes in rat; assay: Leukocyte number and differential ratios after 16 weeks of administration and 2 weeks of withdrawal; format: in vivo; details: rats
Procedure: Rats were administered with the same regimens as in Experiment 6 for the duration of 16 weeks, and those with two weeks of withdrawal were separately maintained.

[7] = test system: femur marrow cells; assay: Number of bone marrow cells after 16 weeks of administration; format: in vivo; details: rats, ticlopidine vs control, combinations vs ticlopidine alone
Procedure: A Change in the Number of Bone Marrow Cells after the Administration of the Pharmaceutical Composition for the Duration of 16 Weeks. […] Thereafter, the number of bone marrow cells was measured. In detail, for the purposes of measuring the numbers of the precursor cells of leukocytes, the femur part was incised with the elimination of the surrounding muscle tissues. Then, both sides of epiphysis were incised, from which approximately 2 cm of femur was obtained. […] After removing the supernatant, 1 ml of saline solution was added to the precipitated cell layer. […] Then, removing the supernatant once again, 0.5 ml of saline solution was added to the precipitated cell layer and mixed. The drop therefrom was added to the Cytometer, and the number of cells in the RRRRR 5 part (4 corners and the center) was counted. Using the following formula, the number of marrow cells were calculated: Counted Number×50×10×10^3=Number of white blood cell precursor/femur.

[8] = test system: femur marrow cells; assay: Number of bone marrow cells after 16 weeks of administration and 2 weeks of withdrawal; format: in vivo; details: rats, 16 weeks then 2 weeks of withdrawal; combination 5:2
Procedure: The Changes in the Number of the Bone Marrow Cells after 16 Weeks of the Administration of the Pharmaceutical Composition, Followed by 2 Weeks of Withdrawal
Thereafter, the number of bone marrow cells at femur was measured.

[9] = test system: femur marrow cells; assay: Histological examination of the marrow cells after 16 weeks; format: in vivo; details: rats, femur marrow histology ×400
Source text: Histological Examination of the Marrow Cells after the Administration of the Pharmaceutical Composition for 16 Weeks […] Thereafter, the marrow cells was histologically examined. […] The femur so extracted was decalcified with the decalcification solution and embedded with paraffin after the ordinary course of the histological process. The femur tissue so embedded with paraffin was sliced at a thickness of 4 μm, followed by hematoxylin and eosins. Thereafter, the slide was examined with the light microscope at 400×.

[10] = test system: femur marrow cells; assay: Histological examination of the marrow cells after 16 weeks and 2 weeks of withdrawal; format: in vivo; details: rats, 16 weeks then 2 weeks of withdrawal, femur marrow histology
Source text: Histological Examination of the Marrow Cells after the Administration of the Pharmaceutical Composition for 16 Weeks, Followed by 2 Weeks of Withdrawal
Thereafter, the marrow cells were histolosically examined.

[11] = patients, first 3 months of treatment; cited from earlier work
[12] = test system: platelet aggregation induced by 1×10^−5 M ADP; assay: Ex vivo platelet aggregation suppression effect; details: female rats, ADP 1×10^−5 M
Source text: Ex Vivo Platelet Aggregation Suppression Effect
One hour after the final administration on the specimen, the rats were anesthetized. For preventing blood coagulation, the blood sample was collected using a syringe with the anti-coagulant, 3.8% Sodium Citrate solution. Thereafter, the effects oil the platelet aggregation induced by 1×10^−5 M ADP were studied.

[13] = 50 mg/kg/day for 9 days, 50 mg/kg/day
[14] = 50 mg/kg/day for 9 days, listed as Ticlopidine (T), 50 mg/kg/day
[15] = 100 mg/kg/day for 9 days, 100 mg/kg/day
[16] = 100 mg/kg/day for 9 days, listed as Ticlopidine (T), 100 mg/kg/day
[17] = 50 mg/kg/day for 9 days, listed as Ticlopidine (T)
[18] = 100 mg/kg/day for 9 days, listed as Ticlopidine (T)
[19] = 16 weeks P.O., ticlopidine 300 mg/kg/day alone or + Ginkgo extract 60/120/240 mg/kg/day, mean ± S.E.
[20] = 16 weeks P.O. then 2 weeks of withdrawal, 300 or 300 + 120 mg/kg/day, mean ± S.E.

Clc1ccccc1CN1CCc2sccc2C1 [Ticlopidine, 5-[(2-chlorophenyl)methyl]-4,5,6,7-tetrahydrothieno[3,2-C]pyridine]
Recovered Mouse, % ([1]; 50 mg/kg/day for 3 days): 38% | Recovered Mouse, Number of Mouse ([1]; 50 mg/kg/day for 3 days): 6 | Recovered Mouse, % ([1]; 100 mg/kg/day for 3 days): 47% | Recovered Mouse, Number of Mouse ([1]; 100 mg/kg/day for 3 days): 7 | Thrombus Dry Condition Weight ([2]; 50 mg/kg/day for 9 days): 9.53 mg | Thrombus Wet Condition Weight ([2]; 50 mg/kg/day for 9 days): 35.03 mg | Thrombus Dry Condition Suppression Rate (%) [2, 13]: 25% | Thrombus Wet Condition Suppression Rate (%) [2, 13]: 26% | Thrombus Dry Condition Suppression Rate (%) [2, 14]: 25 ± 21% | Thrombus Wet Condition Suppression Rate (%) [2, 14]: 26 ± 19% | Thrombus Dry Condition Weight ([2]; 100 mg/kg/day for 9 days): 8.78 mg | Thrombus Wet Condition Weight ([2]; 100 mg/kg/day for 9 days): 30.45 mg | Thrombus Dry Condition Suppression Rate (%) [2, 15]: 31% | Thrombus Wet Condition Suppression Rate (%) [2, 15]: 36% | Thrombus Dry Condition Suppression Rate (%) [2, 16]: 31 ± 12% | Thrombus Wet Condition Suppression Rate (%) [2, 16]: 36 ±10% | Time (Minute) Maximum (time to maximum aggregation) ([3]; 50 mg/kg/day for 9 days): 1.8 min | Time (Minute) Total (complete de-aggregation) ([3]; 50 mg/kg/day for 9 days): 4.33 min | Aggregation Rate (%) 2 Minutes ([3]; 50 mg/kg/day for 9 days): 74% | Aggregation Rate (%) 3 Minutes ([3]; 50 mg/kg/day for 9 days): 45% | Aggregation Rate (%) Maximum ([3]; 50 mg/kg/day for 9 days): 78% | Aggregation Rate (%) 2 Minutes [3, 17]: 74.4% | Aggregation Rate (%) 3 Minutes [3, 17]: 45.8% | Aggregation Rate (%) Maximum [3, 17]: 78.2% | Time (Minute) Maximum (time to maximum aggregation) ([3]; 100 mg/kg/day for 9 days): 1.5 min | Time (Minute) Total (complete de-aggregation) ([3]; 100 mg/kg/day for 9 days): 3.4 min | Aggregation Rate (%) 2 Minutes ([3]; 100 mg/kg/day for 9 days): 62% | Aggregation Rate (%) 3 Minutes ([3]; 100 mg/kg/day for 9 days): 21% | Aggregation Rate (%) Maximum ([3]; 100 mg/kg/day for 9 days): 72% | Aggregation Rate (%) 2 Minutes [3, 18]: 62.9% | Aggregation Rate (%) 3 Minutes [3, 18]: 21.4% | Aggregation Rate (%) Maximum [3, 18]: 72.6% | bleeding time increase from that in the control group ([4]; 50 mg/kg): 1.5 times | bleeding time increase from that in the control group ([4]; 100 mg/kg): 2 times | Bleeding Time ([4]; 50 mg/kg/day for 5 days): 1546 ± 332 s | Bleeding Time ([4]; 100 mg/kg/day for 5 days): 2023 ± 872 s | eosinophil, basophil, macrophage or lymphocyte compared with the control group ([5]; 16 weeks): not significant differences | white blood cells in the blood compared with the control group ([5]; 16 weeks): slight tendency of a decrease | Total Leukocyte (×10^3/μl) ([5]; 16 weeks P.O. in drinking water, ticlopidine 300 mg/kg/day alone or + Ginkgo extract 60 (5:1), 120 (5:2), 240 (5:4) mg/kg/day, mean ± S.E.): 9.3 ± 1.3 ×10^3/μl | Basophil (%) [5, 19]: 1.7 ± 0.2% | Eosinophil (%) [5, 19]: 2.0 ± 0.4% | Lymphocyte (%) [5, 19]: 80.4 ± 1.6% | Macrophage (%) [5, 19]: 5.5 ± 0.8% | Neutrophil (%) [5, 19]: 10.5 ± 1.1 % | Neutrophil (%) ([5]; 16 weeks P.O., ticlopidine 300 mg/kg/day alone or + Ginkgo extract 60/120/240 mg/kg/day, mean ± S.E., listed as ticlopidine): 10.5±1.1% | Basophil (%) [6, 20]: 0.3 ± 0.1% | Eosinophil (%) [6, 20]: 2.7 ± 0.2% | Lymphocyt (%) [6, 20]: 77.8 ± 0.5% | Macrophage (%) [6, 20]: 3.5 ± 1.0% | Neutrophil (%) [6, 20]: 15.9 ± 1.7 % | Total Leukocyte (×10^3/μl) ([6]; 16 weeks P.O. then 2 weeks of withdrawal, ticlopidine 300 mg/kg/day alone or + Ginkgo extract 120 mg/kg/day (5:2), mean ± S.E.): 10.3 ± 1.2 ×10^3/μl | number of neutrophil / leukocytes after withdrawal compared with the control group ([6]; 16 weeks then 2 weeks of withdrawal): normal recovery | number of white blood cell precursor at marrow (femur marrow cells, FIG. 1), words [7]: significant reduction | number of marrow cells at femur (FIG. 2), words [8]: recovered to the normal level | Band-granulocyte [9]: no change | Cellularity (density of the marrow cells) [9]: malignant vacuolation | Megakaryocyte [9]: decreased | Myelocyte [9]: significantly decreased | Megakaryocyte [10]: increased almost to the point of the control group | incidence rate of toxicity (neutropenia, agranulocytosis) [11]: 0.8% | Suppression Rate (%) (Avg + SD) ([12]; 100 mg/kg/day for 3 days, 100 mg/kg/day): 67% | Suppression Rate (%) (Avg + SD) ([12]; 100 mg/kg/day for 3 days, listed as Ticlopidine (T), 100 mg/kg/day): 67.06 ± 16.25 % | Suppression Rate (%) (Avg + SD) ([12]; 200 mg/kg/day for 3 days, 200 mg/kg/day): 98% | Suppression Rate (%) (Avg + SD) ([12]; 200 mg/kg/day for 3 days, listed as Ticlopidine (T), 200 mg/kg/day): 97.97 ± 4.53 %
